Test results: patent US20240415804A1, “METHOD OF TREATING PANCREATIC CANCER” (University of South Florida, priority 2022, published 2024)

Legend:
iNOS = assay: Western blot of iNOS protein in tumors of KC-HPC mice; format: in vivo, mouse; conditions: KC-HPC-API vs KC-HPC mice
Description: The inventors then assessed the expression of CD40 (a T cell co-stimulation marker) on M1 TAM (gated as MHC-II^+ and CD206) within the tumor from KC-HPC vs. KC-HPC-API mice. […] Single-cell suspensions of BM, digested pancreatic tumors cells and UN-KC-6141 cells treated with API (40 μM) were lysed with radioimmunoprecipitation buffer (Sigma-Aldrich), quantified with a BCA Protein Assay kit (Thermo Fisher Scientific, Waltham, MA, USA), resolved by SDS-PAGE (Thermo Fisher Scientific) and transferred onto a nitrocellulose membrane as previously described. Membranes were probed with either anti-SHIP-1 (Santa Cruz Biotechnology, Dallas, TX, USA), anti-iNOS (Cell Signaling Technology) or anti-Bcl-2 (Cell Signaling Technology, Danvers, MA, USA), all at a dilution of 1:1000. All blots were re-probed with a housekeeping protein, HRP-conjugated anti-β-actin (Sigma-Aldrich), at a dilution of 1:20,000. Membranes were then probed with the respective secondary anti-mouse or rabbit IgG HRP-conjugated antibodies (1:1000) of SHIP-1 and iNOS. Detection of SHIP-1, iNOS and β-actin proteins was performed using Super Signal West Pico or Femto Chemiluminescent Substrates (Thermo Fisher Scientific) and then imaged on a Bio-Rad Chemi Doc XRS Imaging System. Normalized densitometric ratios (divided by β-actin) were determined by quantifying WB results using Image J.

Panc02 cells = assay: Apoptosis by flow cytometry (Annexin V and PI), Panc02; format: cell-based, mouse; conditions: API 10, 20, 30, 40, 50 μM, 24 h
Description: Panc02 and UN-KC-6141 cells were seeded in 6-well plates allowed to grow to 50-60% confluency. Cells were then treated with API at a dose-dependent concentration (10, 20, 30, 40, 50 μM) or DMSO (1%) as vehicle control and incubated for 24 h at 37° C. in a humidified atmosphere of 5% CO2. Cells were collected and stained with a FITC Annexin V Apoptosis Detection Kit I (BD Bioscience, San Jose, CA, USA) according to the manufacturer's instructions. Acquisition of samples was performed using a flow cytometer BD LSRII (BD Biosciences Immunocytometry Systems, San Jose, CA, USA). FlowJo v10.8 software (TreeStar Inc., Ashland, OR, USA) was used for data analysis.

miR-155 = miR-155 gene expression by RT-qPCR in MiaPaCa-2 cells; format: cell-based, human; conditions: API 40 μM, 24 h, vs DMSO vehicle
Description: MiR-155 is known to be overexpressed in different cancers, including PC^21, 23. The inventors first assessed whether apigenin could modulate the expression of miR-155 in PC cells. Murine PC cell lines Panc02 and UN-KC-6141 as well as the human PC cell line MiaPaCa-2 were treated with API (40 μM) or DMSO vehicle for 24 h and the expression of miR-155 was examined using RT-qPCR assay. […] Since API is known to inhibit the growth of cancer cells, including PC cells^39-43, 47-50, the same PC cell lines were treated with API (40 μM) or DMSO (vehicle) for 24 h and examined cell viability using MTT assay. […] Moreover, Panc02 and UN-KC-6141 cells were then treated with API at a dose dependent concentration (10, 20, 30, 40, 50 μM) and detected apoptosis using flow cytometry (Annexin V and PI).
miR-155 is implicated in the development of pancreatic tumors from pancreatic intraepithelial neoplasia (PanIN) lesions, and is overexpressed in PC^23. The inventors examined whether the depletion of miR-155 modulated PC viability. Murine and human PC cell lines were transfected with miR-155 inhibitor (i.e., MMU-MIR-155-5P/HSA-MIR-155-5P) and scrambled miRNA at a concentration of 100 nM for 24 h and cell viability determined using an MTT assay. The expression of miR-155 was examined using an RT-qPCR assay as well. […]

O=c1cc(-c2ccc(O)cc2)oc2cc(O)cc(O)c12 [API, 40,5,7-Trihydroxyflavone, 5,7-Dihydroxy-2-(4-hydroxyphenyl)-4-benzopyrone]
iNOS protein expression in tumor (iNOS): significant increase
apoptosis (Annexin V and PI) (Panc02 cells): induces apoptosis
miR-155 gene expression (miR-155): significantly suppressed
